In patent publication US12030904B2 (priority 2020, dated 2024) one finds EC50 and CC50 data, which are given here for 14 compounds.

pEC50: −log10 of the molar value. Where only a bound is given, the exact number is not on record here.

For one data set, the system named is SARS-CoV-2. The data set is described as follows: microbe, parasite or virus in culture. Format: cell-based. As to conditions: Severe acute respiratory syndrome coronavirus 2, 48 h; read-out: SARS-CoV-2 EC50.
Data set [1] in a line: A549 cytotoxicity analysis (CellTiter-Glo). The class given is cell-based. As to conditions: human; A549 cells, 48 hours; Table 1. As for the experimental part: The cytotoxicity of compounds was determined in A549 cells in the following manner. Compounds (40 nL) were spotted onto 384-well Grenier plates prior to seeding 5000 A549 cells/well in a volume of 40 μL culture medium. The plates were incubated at 37° C. for 48 hours with 5% CO2. On day 2, 40 μL of CellTiter-Glo (Promega) was added and mixed 5 times. Plates were read for luminescence on an Envision (PerkinElmer) and the CC50 (compound concentration for reducing 50% of luminescence signal as a measure of cell viability) were calculated using a nonlinear regression model (four parameters). Two experiments were performed with technical duplicates.
A general note: ATP-based viability assays read luminescence as a measure of living cells.

The nature of another data set: MT4 cytotoxicity (CC50). As to conditions: human, MT4 cells, MT4 CC50, Table 1a.
Data set [2] deals with Recombinant Respiratory Syncytial virus strain A2 containing the firefly luciferase reporter (RSV-Fluc). Kind of data set: microbe, parasite or virus in culture. The class given is cell-based. As to conditions: human respiratory syncytial virus, NHBE, 72 h, read-out: RSV-Fluc EC50 (NHBE), NHBE cells, three days; Table 1.

As usually defined, the pEC50 is the EC50 on a negative log10 scale, so that one unit is a factor of ten. As usually defined, the CC50 is the concentration at which the toxic effect on the cells reaches its halfway point. As for `CCCCCCCCCCCCCCCCCCOC[C@H](COP(=O)(O)OC[C@H]1O[C@@](C#N)(c2ccc3c(N)ncnn23)[C@H](O)[C@@H]1O)OCc1ccc(-c2ccccc2)cc1` [Example 2, (R)-2-([1,1′-biphenyl]-4-ylmethoxy)-3-(octadecyloxy)propyl (((2R,3S,4R,5R)-5-(4-aminopyrrolo[2,1-f][1,2,4]triazin-7-yl)-5-cyano-3,4-dihydroxytetrahydrofuran-2-yl)methyl) hydrogen phosphate], the pEC50 is 6.37 with SARS-CoV-2 and 6.46 in data set [2]. Moreover, the 50% cytotoxic concentration (CC50) at 48 h in data set [1] was above 50 µM. This compound registered a CC50 in “MT4 cytotoxicity (CC50)” of 14.7 µM.

Turning to `CCCCCCCCCCCCCCCCCCOC[C@H](COP(=O)(O)OC[C@H]1O[C@@](C#N)(c2ccc3c(N)ncnn23)[C@H](O)[C@@H]1O)OCC1CCCCC1` [Example 3, ((2R,3S,4R,5R)-5-(4-aminopyrrolo[2,1-f][1,2,4]triazin-7-yl)-5-cyano-3,4-dihydroxytetrahydrofuran-2-yl)methyl ((R)-2-(cyclohexylmethoxy)-3-(octadecyloxy)propyl) hydrogen phosphate], the negative logarithm of the EC50 (pEC50) in the data set with SARS-CoV-2 was 6.47; in data set [2] it was 6.92. In addition, the CC50 at 48 h in data set [1] was 19 µM. In addition, the CC50 in the data set “MT4 cytotoxicity (CC50)” amounted to 14 µM.

As for `CCCCCCCCCCCCCCCCCCOC[C@H](COP(=O)(O)OC[C@H]1O[C@@](C#N)(c2ccc3c(N)ncnn23)[C@H](O)[C@@H]1O)OCc1ccc2ccccc2c1` [Example 4, ((2R,3S,4R,5R)-5-(4-aminopyrrolo[2,1-f][1,2,4]triazin-7-yl)-5-cyano-3,4-dihydroxytetrahydrofuran-2-yl)methyl ((R)-2-(naphthalen-2-ylmethoxy)-3-(octadecyloxy)propyl) hydrogen phosphate], the pEC50 with SARS-CoV-2 was 6.47; in data set [2] it was 7.22. The same compound had a CC50 at 48 h in data set [1] of 17 µM. The CC50 in “MT4 cytotoxicity (CC50)” stood at 4.17 µM.

Consider `CCCCCCCCCCCCCCCCOC[C@H](COP(=O)(O)OC[C@H]1O[C@@](C#N)(c2ccc3c(N)ncnn23)[C@H](O)[C@@H]1O)OCc1ccccc1` [Example 5, ((2R,3S,4R,5R)-5-(4-aminopyrrolo[2,1-f][1,2,4]triazin-7-yl)-5-cyano-3,4-dihydroxytetrahydrofuran-2-yl)methyl ((R)-2-(benzyloxy)-3-(hexadecyloxy)propyl) hydrogen phosphate], for which the pEC50 was 6.32 with SARS-CoV-2 and 7.30 in data set [2]. In data set [1], the half-maximal cytotoxic concentration (CC50) at 48 h was 19 µM. Also, in “MT4 cytotoxicity (CC50)”, the CC50 was 6.29 µM.

As to `CCCCCCCCCCCCCCCCCCCOC[C@H](COP(=O)(O)OC[C@H]1O[C@@](C#N)(c2ccc3c(N)ncnn23)[C@H](O)[C@@H]1O)OCc1ccccc1` [Example 7, ((2R,3S,4R,5R)-5-(4-aminopyrrolo[2,1-f][1,2,4]triazin-7-yl)-5-cyano-3,4-dihydroxytetrahydrofuran-2-yl)methyl ((R)-2-(benzyloxy)-3-(nonadecyloxy)propyl) hydrogen phosphate], the pEC50 was 6.43 with SARS-CoV-2 and 7.10 in data set [2]. The CC50 at 48 h in data set [1] is above 50 µM. Moreover, the CC50 in the data set “MT4 cytotoxicity (CC50)” amounted to 13.9 µM.

Consider `CCCCCCCCCCCCCCCCCCCCOC[C@H](COP(=O)(O)OC[C@H]1O[C@@](C#N)(c2ccc3c(N)ncnn23)[C@H](O)[C@@H]1O)OCc1ccccc1` [Example 8, ((2R,3S,4R,5R)-5-(4-aminopyrrolo[2,1-f][1,2,4]triazin-7-yl)-5-cyano-3,4-dihydroxytetrahydrofuran-2-yl)methyl ((R)-2-(benzyloxy)-3-(icosyloxy)propyl) hydrogen phosphate], for which the negative-log EC50 (pEC50) is 6.10 with SARS-CoV-2 and 6.96 in data set [2]. Further, it took 23 µM to reach half-maximal cytotoxicity in data set [1] (CC50 at 48 h). This compound also yielded a CC50 in “MT4 cytotoxicity (CC50)” of 33.4 µM.

Take `CCCCCCCCCCCCCCCCCCOC[C@H](COP(=O)(O)OC[C@H]1O[C@@](C#N)(c2ccc3c(N)ncnn23)[C@H](O)[C@@H]1O)OCc1ccc(C#N)cc1` [Example 9, ((2R,3S,4R,5R)-5-(4-aminopyrrolo[2,1-f][1,2,4]triazin-7-yl)-5-cyano-3,4-dihydroxytetrahydrofuran-2-yl)methyl ((R)-2-((4-cyanobenzyl)oxy)-3-(octadecyloxy)propyl) hydrogen phosphate]: the pEC50 in the data set with SARS-CoV-2 is 6.57; in data set [2], 7.30. Moreover, in data set [1], half-maximal cytotoxicity (CC50 at 48 h) was put at 30 µM. The compound further returned a CC50 in “MT4 cytotoxicity (CC50)” of 1.43 µM.

For the compound `CCCCCCCCCCCCCCCCCCOC[C@H](COP(=O)(O)OC[C@H]1O[C@@](C#N)(c2ccc3c(N)ncnn23)[C@H](O)[C@@H]1O)OCc1ccc(OC)cc1` [Example 10, ((2R,3S,4R,5R)-5-(4-aminopyrrolo[2,1-f][1,2,4]triazin-7-yl)-5-cyano-3,4-dihydroxytetrahydrofuran-2-yl)methyl ((R)-2-((4-methoxybenzyl)oxy)-3-(octadecyloxy)propyl) hydrogen phosphate], the pEC50 was 6.52 in the data set with SARS-CoV-2 and 7.22 in data set [2]. The compound also came in with a CC50 at 48 h in data set [1] of 20 µM. Further, half-maximal cytotoxicity in “MT4 cytotoxicity (CC50)” (CC50) was put at 3.43 µM.

On to `CCCCCCCCCCCCCCCCCCOC[C@H](COP(=O)(O)OC[C@H]1O[C@@](C#N)(c2ccc3c(N)ncnn23)[C@H](O)[C@@H]1O)OCc1ccc(C(F)(F)F)cc1` [Example 11, ((2R,3S,4R,5R)-5-(4-aminopyrrolo[2,1-f][1,2,4]triazin-7-yl)-5-cyano-3,4-dihydroxytetrahydrofuran-2-yl)methyl ((R)-3-(octadecyloxy)-2-((4-(trifluoromethyl)benzyl)oxy)propyl) hydrogen phosphate], for which the pEC50 in the data set on SARS-CoV-2 is 6.46; in data set [2], 7.22. The same compound displayed a CC50 at 48 h in data set [1] above 50 µM. In addition, in the data set “MT4 cytotoxicity (CC50)”, it took 14.5 µM to reach half-maximal cytotoxicity (CC50).

As to `CCCCCCCCCCCCCCCCCCOC[C@H](COP(=O)(O)OC[C@H]1O[C@@](C#N)(c2ccc3c(N)ncnn23)[C@H](O)[C@@H]1OC(=O)C(C)C)OCc1ccccc1` [Example 12, (2R,3S,4R,5R)-5-(4-aminopyrrolo[2,1-f][1,2,4]triazin-7-yl)-2-(((((R)-2-(benzyloxy)-3-(octadecyloxy)propoxy)(hydroxy)phosphoryl)oxy)methyl)-5-cyano-4-hydroxytetrahydrofuran-3-yl isobutyrate], the pEC50 with SARS-CoV-2 is 5.49; in data set [2], 6.59. Besides, in data set [1], the CC50 at 48 h was found to be 50 µM. This compound also came in with a CC50 in the data set “MT4 cytotoxicity (CC50)” of 50 µM.

Regarding `CCCCCCCCCCCCCCCCCCOC[C@H](COP(=O)(O)OC[C@H]1O[C@@](C#N)(c2ccc3c(N)ncnn23)[C@H](OC(=O)C(C)C)[C@@H]1OC(=O)C(C)C)OCc1ccccc1` [Example 13, (2R,3R,4R,5R)-2-(4-aminopyrrolo[2,1-f][1,2,4]triazin-7-yl)-5-(((((R)-2-(benzyloxy)-3-(octadecyloxy)propoxy)(hydroxy)phosphoryl)oxy)methyl)-2-cyanotetrahydrofuran-3,4-diyl bis(2-methylpropanoate)], the values for the pEC50 (in the data set on SARS-CoV-2; in data set [2]) were below 5.00 and 5.66, respectively. Moreover, in data set [1], the CC50 at 48 h is 15 µM. Also, it took 32.8 µM to reach half-maximal cytotoxicity in the data set “MT4 cytotoxicity (CC50)” (CC50).

Consider `CCCCCCCCCCCCCCCCCCOC[C@H](COP(=O)(O)OC[C@H]1O[C@@](C#N)(c2ccc3c(N)ncnn23)[C@H](O)[C@@H]1O)OCc1ccc(F)c(F)c1` [Example 14, ((2R,3S,4R,5R)-5-(4-aminopyrrolo[2,1-f][1,2,4]triazin-7-yl)-5-cyano-3,4-dihydroxytetrahydrofuran-2-yl)methyl ((R)-2-((3,4-difluorobenzyl)oxy)-3-(octadecyloxy)propyl) hydrogen phosphate], for which the pEC50 was 6.49 with SARS-CoV-2 and 7.05 in data set [2]. This compound also returned a CC50 at 48 h in data set [1] of 13 µM. In the data set “MT4 cytotoxicity (CC50)”, this compound displayed a CC50 of 7.19 µM.

On to `CCCCCCCCCCCCCCCCCCOC[C@H](COP(=O)(O)OC[C@H]1O[C@@](C#N)(c2ccc3c(N)ncnn23)[C@H](O)[C@@H]1O)OCc1cc(F)cc(F)c1` [Example 15, [(2R,3S,4R,5R)-5-(4-aminopyrrolo[2,1-f][1,2,4]triazin-7-yl)-5-cyano-3,4-dihydroxy-tetrahydrofuran-2-yl]methyl [(2R)-2-[(3,5-difluorophenyl)methoxy]-3-octadecoxy-propyl] hydrogen phosphate], for which the pEC50 was 6.59 in the data set with SARS-CoV-2 and 7.10 in data set [2]. Also, the CC50 at 48 h in data set [1] came out at 13 µM. This compound also gave a CC50 in “MT4 cytotoxicity (CC50)” of 3.31 µM.

`CCCCCCCCCCCCCCCCCCOC[C@H](COP(=O)(O)OC[C@H]1O[C@@](C#N)(c2ccc3c(N)ncnn23)[C@H](O)[C@@H]1O)OCc1cc(F)cc(C#N)c1` [Example 16, [(2R,3S,4R,5R)-5-(4-aminopyrrolo[2,1-f][1,2,4]triazin-7-yl)-5-cyano-3,4-dihydroxy-tetrahydrofuran-2-yl]methyl [(2R)-2-[(3-cyano-5-fluoro-phenyl)methoxy]-3-octadecoxy-propyl] hydrogen phosphate]: the pEC50 was 6.66 in the data set on SARS-CoV-2 and 7.22 in data set [2]. This compound displayed a CC50 at 48 h in data set [1] of 18 µM. Also, the CC50 in the data set “MT4 cytotoxicity (CC50)” was found to be 0.433 µM.
